Consider one molecule from patent US20240122905A1, “PHARMACEUTICAL COMPOSITION” (MedinCell S.A., priority 2020, published 2024).

Molecules are shown by their SMILES.

A short description of this series: PK1: absolute/subcutaneous bioavailability study of Tacrolimus solution (IV and SC). Format: in vivo, female Göttingen minipig. The note with it: for AUClast/D1 / AUC∞/D1 / Cmax/D1: dose-normalized by actual dose per kg. On the procedure:
PK1: A 2-Month Pharmacokinetic Study of Different Sustained-Release Formulations of Tacrolimus after Subcutaneous Administration and Subcutaneous Bioavailability Study of Tacrolimus in Female Göttingen Minipig
Evaluation of the Absolute Bioavailability of Tacrolimus
The dose volume for each animal was 12.5 mL corresponding to a unique dose of 2.5 mg/animal. Solution was administered: • intravenously into the ear vein using 20 mL polypropylene syringe and 23 G butterfly needle. • subcutaneously in a skin fold caudal to the axillar region/shoulder using 20 mL polypropylene syringe and 21 G needle.
Blood samples were collected into EDTA tubes at predose and at different time points: • Intravenous dosing: 5 min (0.083 h), 15 min (0.25 h), 30 min (0.5 h), and 1, 2, 6, 24, 48, 72 and 96 h after end of dosing. • Subcutaneous dosing: 30 min (0.5 h), and 1, 2, 4, 6, 10, 24, 48, 72 and 96 h after end of dosing.
Whole blood samples were analyzed to determine the concentration of the test item using a qualified analytical procedure. 2-Month Pharmacokinetic Study of Sustain-Release Formulations

The mark [1] stands for this setting: Tacrolimus solution 2.5 mg/animal IV.
[2] abbreviates: Tacrolimus solution 2.5 mg/animal SC.
[3] abbreviates: female, Göttingen, minipig, Tacrolimus solution 2.5 mg/animal IV, whole blood.
Where [4] appears, read: female, Göttingen, minipig, Tacrolimus solution 2.5 mg/animal SC, whole blood.

For orientation: bioavailability means the share of a dose that reaches the circulation, judged against a reference dose that is usually intravenous. Read a low bioavailability as poor availability. For orientation: AUC(0-inf) means the area under the concentration-time curve extrapolated to infinity. A higher AUC(0-inf) goes with high exposure. As usually defined, the AUC(0-t) is the area under the concentration-time curve up to a stated or last time point. Lower therefore signals less exposure. One may read the half-life as the time needed for the level to fall by half in the phase considered. Higher therefore signals slow decline. What is called Cmax is the peak of the concentration-time curve. What is called Tmax is the time from dosing to the highest level. In the case of `C=CC[C@@H]1/C=C(\C)C[C@H](C)C[C@H](OC)[C@H]2O[C@@](O)(C(=O)C(=O)N3CCCC[C@H]3C(=O)OC(/C(C)=C/[C@@H]3CC[C@@H](O)[C@H](OC)C3)[C@H](C)[C@@H](O)CC1=O)[C@H](C)C[C@@H]2OC` (stereo partly shown) [Tacrolimus], under setting [1], the AUClast/D1 turned out to be 17900 ± 1620 kg·ng·h/mL/mg and the “AUC∞/D1” value was found to be 19700 ± 1750 kg·ng·h/mL/mg. The same molecule came in with a Clast (Tacrolimus solution 2.5 mg/animal IV, whole blood) of 4.22 ± 2.08 ng/mL. The tlast (Tacrolimus solution 2.5 mg/animal IV, whole blood, median (range)) is listed as 95.7 (95.7-96.1)^$ h. Further, under setting [2], the AUClast/D1 amounted to 17100 ± 1090 kg·ng·h/mL/mg, the “AUC∞/D1” value came out at 18100 ± 1150 kg·ng·h/mL/mg and the Cmax/D1 stood at 779 ± 30.8 kg·ng/mL/mg. This molecule came in with a Cmax/D1 (Tacrolimus solution 2.5 mg/animal SC, listed as immediate release compound) of 779 kg·ng/mL/mg. The molecule further returned a Clast (Tacrolimus solution 2.5 mg/animal SC, whole blood) of 2.89 ± 0.759 ng/mL. Moreover, the tlast (Tacrolimus solution 2.5 mg/animal SC, whole blood, median) was 96 h. In addition, the bioavailability (female, Göttingen, minipig, whole blood, subcutaneous, Tacrolimus solution 2.5 mg/animal SC vs IV) was 92.4%. Under setting [3], this molecule gave an AUC(0-inf) of 2040 ± 258 ng·h/mL, an AUC(0-t) of 1850 ± 224 ng·h/mL and a half-life of 31.5 ± 1.62 h. Under setting [4], this molecule showed an AUC(0-inf) of 1870 ± 189 ng·h/mL, an AUC(0-t) of 1760 ± 169 ng·h/mL, a maximum concentration (Cmax) of 80.2 ± 2.63 ng/mL and a half-life of 25.7 ± 2.25 h. Moreover, the Tmax (female, Göttingen, minipig, Tacrolimus solution 2.5 mg/animal SC, whole blood, median) worked out at 4 h.
